# ChEMBL document CHEMBL4414648, “Novel Benzohydroxamate-Based Potent and Selective Histone Deacetylase 6 (HDAC6) Inhibitors Bearing a Pentaheterocyclic Scaffold: Design, Synthesis, and Biological Evaluation” (J Med Chem, 2019)
# Tests used:
# [1] = Selectivity ratio of IC50 for human HDAC4 expressed in baculovirus infected sf9 insect cells to IC50 for human N-terminal GST-tagged HDAC6 expressed in baculovirus infected sf9 insect cells
# [2] = Stability in human liver S9 fraction assessed as parent compound remaining at 5 uM after 90 mins in presence of NADPH by LC-MS/MS analysis; assay type: ADME, subcellular; details: read-out: Stability
# [3] = Stability in rat plasma assessed as parent compound remaining at 100 uM after 4 hrs by LC-MS/MS analysis; assay type: ADME, cell-free; details: read-out: Stability
# [4] = Stability in rat liver S9 fraction assessed as parent compound remaining at 5 uM after 90 mins in presence of NADPH by LC-MS/MS analysis; assay type: ADME, subcellular; details: read-out: Stability
# [5] = Selectivity ratio of IC50 for C-terminal His-tagged human HDAC9 (604 to 1066 residues) expressed in baculovirus infected sf9 insect cells to IC50 for human N-terminal GST-tagged HDAC6 expressed in baculovirus infected sf9 insect cells
# [6] = Selectivity ratio of IC50 for N-terminal Flag-tagged human HDAC10 (2 to 631 residues) expressed in baculovirus infected sf9 insect cells to IC50 for human N-terminal GST-tagged HDAC6 expressed in baculovirus infected sf9 insect cells
# [7] = Selectivity ratio of IC50 for N-terminal His-tagged human HDAC11 expressed in baculovirus expression system to IC50 for human N-terminal GST-tagged HDAC6 expressed in baculovirus infected sf9 insect cells
# Mus musculus = assay: In vivo inhibition of HDAC6 in C57BL/6 mouse assessed as increase in acetylated tubulin level in spleen cytosolic protein extract at 30 mg/kg, ip measured after 60 mins by ELISA relative to control; assay type: functional
# PBMC = assay: Cytotoxicity against human PBMC cells after 72 hrs by CellTiter 96 aqueous one solution assay; assay type: cell-based
# [8] = Toxicity in C57BL/6 mouse assessed as effect on body weight at 30 mg/kg, ip administered for 5 days/week for two cycles and measured every other day relative to control; assay type: organism-based; details: in vivo, 120 h
# [9] = Toxicity in C57BL/6 mouse assessed as effect on body weight at 50 mg/kg, ip administered for 5 days/week for two cycles and measured every other day relative to control; assay type: organism-based; details: in vivo, 120 h
# [10] = Toxicity in C57BL/6 mouse assessed as effect on platelet level at 10 mg/kg, ip administered for 5 days/week for two cycles and measured 60 mins post last dose by cell counter method relative to control; assay type: organism-based; details: in vivo, 1 h
# [11] = Toxicity in C57BL/6 mouse assessed as effect on platelet level at 30 mg/kg, ip administered for 5 days/week for two cycles and measured 60 mins post last dose by cell counter method relative to control; assay type: organism-based; details: in vivo, 1 h
# [12] = Toxicity in C57BL/6 mouse assessed as effect on platelet level at 50 mg/kg, ip administered for 5 days/week for two cycles and measured 60 mins post last dose by cell counter method relative to control; assay type: organism-based; details: in vivo, 1 h
# [13] = Toxicity in C57BL/6 mouse assessed as effect on WBC level at 30 mg/kg, ip administered for 5 days/week for two cycles and measured 60 mins post last dose by beckman coulter counting method relative to control; assay type: organism-based; details: in vivo, 1 h
# [14] = Toxicity in C57BL/6 mouse assessed as inactivity/hyperactivity up to 50 mg/kg, ip administered for 5 days/week for two cycles and measured daily starting from day 1; assay type: organism-based; details: in vivo, 120 h
# [15] = Toxicity in C57BL/6 mouse assessed as induction of kyphosis up to 50 mg/kg, ip administered for 5 days/week for two cycles and measured daily starting from day 1; assay type: organism-based; details: in vivo, 120 h
# [16] = Toxicity in C57BL/6 mouse assessed as induction of diarrhea up to 50 mg/kg, ip administered for 5 days/week for two cycles and measured daily starting from day 1; assay type: organism-based; details: in vivo, 120 h
# [17] = Toxicity in C57BL/6 mouse assessed as effect on grooming up to 50 mg/kg, ip administered for 5 days/week for two cycles; assay type: organism-based; details: in vivo, 120 h
# [18] = molecular target: T1, Protein deacetylase HDAC6 (Mus musculus) (UniProt Q9Z2V5); assay: Inhibition of HDAC6 in C57BL/6 mouse regulatory T cells assessed as increase in Treg-mediated suppression of anti-CD3 induced CD4+ cell division at 1 uM after 72 hrs in presence mitomycin-treated APC by CFSE dye based flow cytometric assay relative to control
# T1 sequence (whole entry): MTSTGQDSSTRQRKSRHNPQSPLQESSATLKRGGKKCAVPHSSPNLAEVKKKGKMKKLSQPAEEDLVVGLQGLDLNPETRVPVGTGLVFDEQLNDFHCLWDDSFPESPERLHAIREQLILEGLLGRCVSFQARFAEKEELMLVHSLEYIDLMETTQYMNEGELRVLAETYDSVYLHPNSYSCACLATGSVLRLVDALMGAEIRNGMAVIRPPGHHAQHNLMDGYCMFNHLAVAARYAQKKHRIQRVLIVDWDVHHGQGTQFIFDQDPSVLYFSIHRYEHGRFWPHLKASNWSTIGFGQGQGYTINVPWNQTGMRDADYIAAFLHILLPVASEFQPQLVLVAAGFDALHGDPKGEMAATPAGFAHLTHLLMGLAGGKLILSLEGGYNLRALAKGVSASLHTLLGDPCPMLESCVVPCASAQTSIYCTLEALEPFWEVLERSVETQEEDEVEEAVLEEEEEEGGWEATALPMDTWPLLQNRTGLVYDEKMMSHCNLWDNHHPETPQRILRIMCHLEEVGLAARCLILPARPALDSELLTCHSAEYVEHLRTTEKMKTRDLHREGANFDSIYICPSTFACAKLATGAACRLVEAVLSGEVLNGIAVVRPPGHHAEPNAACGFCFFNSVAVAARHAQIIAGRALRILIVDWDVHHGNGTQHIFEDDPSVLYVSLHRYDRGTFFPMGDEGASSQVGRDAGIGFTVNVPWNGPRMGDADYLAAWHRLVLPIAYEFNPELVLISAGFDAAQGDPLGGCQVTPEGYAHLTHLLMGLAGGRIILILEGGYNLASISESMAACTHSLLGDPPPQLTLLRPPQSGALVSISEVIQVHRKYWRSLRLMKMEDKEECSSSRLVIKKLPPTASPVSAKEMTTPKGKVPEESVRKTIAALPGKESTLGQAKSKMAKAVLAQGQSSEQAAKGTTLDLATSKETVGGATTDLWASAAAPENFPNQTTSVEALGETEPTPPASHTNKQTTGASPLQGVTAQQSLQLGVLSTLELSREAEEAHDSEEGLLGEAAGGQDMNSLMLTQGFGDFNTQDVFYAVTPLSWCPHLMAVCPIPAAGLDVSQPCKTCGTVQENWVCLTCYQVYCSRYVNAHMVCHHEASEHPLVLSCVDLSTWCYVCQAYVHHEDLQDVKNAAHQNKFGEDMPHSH
# [19] = Inhibition of C57BL/6 mouse effector T cells proliferation at 1 uM after 72 hrs in absence of regulatory T cells by CFSE dye based flow cytometric assay relative to control
# [20] = Inhibition of C57BL/6 mouse effector T cells proliferation at 500 nM after 72 hrs in absence of regulatory T cells by CFSE dye based flow cytometric assay relative to control
smiles,measurement,setting,value
Cn1c(Sc2ccc(C(=O)NO)cc2)nnc1-c1cccs1,Ratio IC50,[1],304
same,"remaining at […], 5 µM",[2],95%
same,"remaining at 4 h, 100 µM",[3],86%
same,"remaining at […], 5 µM",[4],82%
same,Ratio IC50,[5],132
same,Ratio IC50,[6],343
same,Ratio IC50,[7],119
same,fold change (FC),Mus musculus,10
same,IC50,PBMC,> 1000 nM
same,Activity,[8],3.9%
same,Activity,[9],3.5%
same,Activity,[10],-11%
same,Activity,[11],-2%
same,Activity,[12],-8%
same,Activity,[13],-34%
same,Activity,[14],Non-Toxic
same,Activity,[15],Non-Toxic
same,Activity,[16],Non-Toxic
same,Activity,[17],Non-Toxic
same,fold change (FC),[18],3.4
same,"inhibition at 72 h, 1 µM",[19],< 5%
same,"inhibition at 72 h, 0.5 µM",[20],< 0.5%
